How the values were obtained:
Assay in all cases: relative viability (nuclei count vs DMSO), 5 days (fraction); higher = more cells survive
NCI-H727 = test system: NCI-H727
How it was run: (§1)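 Lung cancer cell lines, seeded in 1536-well plates, were treated the following day by pin tool with a single drug or with five library-drug doses (not always all listed) in √10 steps on top of a fixed anchor-drug dose. Cells were fixed and nuclei stained in one step after 5 days, and nuclei were counted. Relative viability is the nuclei count for treated wells divided by that for vehicle wells, reported as medians of duplicate plates.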

NCI-H1944 = test system: NCI-H1944
How it was run: as §1

NCI-H2087 = test system: NCI-H2087
How it was run: as §1

NCI-H1792 = test system: NCI-H1792
How it was run: as §1

BEN = test system: BEN
How it was run: as §1

SK-LU-1 = test system: SK-LU-1
How it was run: as §1

RERF-LC-KJ = test system: RERF-LC-KJ
How it was run: as §1

NCI-H647 = test system: NCI-H647
How it was run: as §1

CAL-12T = test system: CAL-12T
How it was run: as §1

NCI-H1793 = test system: NCI-H1793
How it was run: as §1

NCI-H2405 = test system: NCI-H2405
How it was run: as §1

HCC-827 = test system: HCC-827
How it was run: as §1

NCI-H2228 = test system: NCI-H2228
How it was run: as §1

NCI-H1650 = test system: NCI-H1650
How it was run: as §1

NCI-H1437 = test system: NCI-H1437
How it was run: as §1

LXF-289 = test system: LXF-289
How it was run: as §1

NCI-H1395 = test system: NCI-H1395
How it was run: as §1

LCLC-97TM1 = test system: LCLC-97TM1
How it was run: as §1

201T = test system: 201T
How it was run: as §1

NCI-H3122 = test system: NCI-H3122
How it was run: as §1

LCLC-103H = test system: LCLC-103H
How it was run: as §1

NCI-H322M = test system: NCI-H322M
How it was run: as §1

For `O=c1cc(N2CCOCC2)oc2c(-c3cccc4c3sc3ccccc34)cccc12` + CCNC(=O)c1noc(-c2cc(C(C)C)c(O)cc2O)c1-c1ccc(CN2CCOCC2)cc1 [Luminespib] (partner 0.01 µM), the relative viability (NCI-H727; first compound 0.01 µM) was 0.324, the relative viability (NCI-H727; first compound 0.03162 µM) was 0.399 and the relative viability (NCI-H727; first compound 0.1 µM) was 0.375. For the same compound, the relative viability (NCI-H727; first compound 0.3162 µM) was 0.356, the relative viability (NCI-H727; first compound 1 µM) was 0.416 and the relative viability (NCI-H1944; first compound 0.01 µM) was 0.785. The relative viability (NCI-H1944; first compound 0.03162 µM) was 0.758, the relative viability (NCI-H1944; first compound 0.1 µM) was 0.687 and the relative viability (NCI-H1944; first compound 0.3162 µM) was 0.728. For the same compound, the relative viability (NCI-H1944; first compound 1 µM) was 0.749, the relative viability (NCI-H2087; first compound 0.01 µM) was 0.148 and the relative viability (NCI-H2087; first compound 0.03162 µM) was 0.146. The relative viability (NCI-H2087; first compound 0.1 µM) was 0.173, the relative viability (NCI-H2087; first compound 0.3162 µM) was 0.237 and the relative viability (NCI-H2087; first compound 1 µM) was 0.169. For the same compound, the relative viability (NCI-H1792; first compound 0.01 µM) was 0.502, the relative viability (NCI-H1792; first compound 0.03162 µM) was 0.359 and the relative viability (NCI-H1792; first compound 0.1 µM) was 0.576. The relative viability (NCI-H1792; first compound 0.3162 µM) was 0.497, the relative viability (NCI-H1792; first compound 1 µM) was 0.531 and the relative viability (BEN; first compound 0.01 µM) was 0.298. For the same compound, the relative viability (BEN; first compound 0.03162 µM) was 0.359, the relative viability (BEN; first compound 0.1 µM) was 0.236 and the relative viability (BEN; first compound 0.3162 µM) was 0.497. For the same compound, the relative viability (BEN; first compound 1 µM) was 0.318, the relative viability (SK-LU-1; first compound 0.01 µM) was 0.206 and the relative viability (SK-LU-1; first compound 0.03162 µM) was 0.234. The relative viability (SK-LU-1; first compound 0.1 µM) was 0.201, the relative viability (SK-LU-1; first compound 0.3162 µM) was 0.206 and the relative viability (SK-LU-1; first compound 1 µM) was 0.215. For the same compound, the relative viability (RERF-LC-KJ; first compound 0.01 µM) was 1.31, the relative viability (RERF-LC-KJ; first compound 0.03162 µM) was 1.22 and the relative viability (RERF-LC-KJ; first compound 0.1 µM) was 1.48. The relative viability (RERF-LC-KJ; first compound 0.3162 µM) was 1.07, the relative viability (RERF-LC-KJ; first compound 1 µM) was 1.21 and the relative viability (NCI-H647; first compound 0.01 µM) was 0.132. It also gave a relative viability (NCI-H647; first compound 0.03162 µM) of 0.115, a relative viability (NCI-H647; first compound 0.1 µM) of 0.101 and a relative viability (NCI-H647; first compound 0.3162 µM) of 0.259. For the same compound, the relative viability (NCI-H647; first compound 1 µM) was 0.209, the relative viability (CAL-12T; first compound 0.01 µM) was 0.723 and the relative viability (CAL-12T; first compound 0.03162 µM) was 0.621. For the same compound, the relative viability (CAL-12T; first compound 0.1 µM) was 0.292, the relative viability (CAL-12T; first compound 0.3162 µM) was 0.31 and the relative viability (CAL-12T; first compound 1 µM) was 0.527. It also gave a relative viability (NCI-H1793; first compound 0.01 µM) of 0.159, a relative viability (NCI-H1793; first compound 0.1 µM) of 0.173 and a relative viability (NCI-H1793; first compound 0.3162 µM) of 0.134. For the same compound, the relative viability (NCI-H1793; first compound 1 µM) was 0.18, the relative viability (NCI-H2405; first compound 0.01 µM) was 0.712 and the relative viability (NCI-H2405; first compound 0.03162 µM) was 0.571. For the same compound, the relative viability (NCI-H2405; first compound 0.1 µM) was 0.722, the relative viability (NCI-H2405; first compound 0.3162 µM) was 0.717 and the relative viability (NCI-H2405; first compound 1 µM) was 0.681. The relative viability (HCC-827; first compound 0.01 µM) was 0.642, the relative viability (HCC-827; first compound 0.03162 µM) was 0.541 and the relative viability (HCC-827; first compound 0.1 µM) was 0.626. The relative viability (HCC-827; first compound 0.3162 µM) was 0.629, the relative viability (HCC-827; first compound 1 µM) was 0.71 and the relative viability (NCI-H2228; first compound 0.01 µM) was 0.151. For the same compound, the relative viability (NCI-H2228; first compound 0.03162 µM) was 0.112, the relative viability (NCI-H2228; first compound 0.1 µM) was 0.125 and the relative viability (NCI-H2228; first compound 0.3162 µM) was 0.191. The relative viability (NCI-H2228; first compound 1 µM) was 0.133, the relative viability (NCI-H1650; first compound 0.01 µM) was 0.211 and the relative viability (NCI-H1650; first compound 0.03162 µM) was 0.169. For the same compound, the relative viability (NCI-H1650; first compound 0.1 µM) was 0.196, the relative viability (NCI-H1650; first compound 0.3162 µM) was 0.203 and the relative viability (NCI-H1650; first compound 1 µM) was 0.191. It also gave a relative viability (NCI-H1437; first compound 0.01 µM) of 0.835, a relative viability (NCI-H1437; first compound 0.03162 µM) of 1.03 and a relative viability (NCI-H1437; first compound 0.1 µM) of 1.1. It also gave a relative viability (NCI-H1437; first compound 0.3162 µM) of 1.08, a relative viability (NCI-H1437; first compound 1 µM) of 1.04 and a relative viability (LXF-289; first compound 0.01 µM) of 0.646. For the same compound, the relative viability (LXF-289; first compound 0.03162 µM) was 0.657, the relative viability (LXF-289; first compound 0.1 µM) was 0.773 and the relative viability (LXF-289; first compound 0.3162 µM) was 0.752. It also gave a relative viability (LXF-289; first compound 1 µM) of 0.714, a relative viability (NCI-H1395; first compound 0.01 µM) of 0.726 and a relative viability (NCI-H1395; first compound 0.03162 µM) of 0.75. The relative viability (NCI-H1395; first compound 0.1 µM) was 0.683, the relative viability (NCI-H1395; first compound 0.3162 µM) was 0.622 and the relative viability (NCI-H1395; first compound 1 µM) was 0.532. It also gave a relative viability (LCLC-97TM1; first compound 0.01 µM) of 0.621, a relative viability (LCLC-97TM1; first compound 0.03162 µM) of 0.796 and a relative viability (LCLC-97TM1; first compound 0.1 µM) of 0.827. For the same compound, the relative viability (LCLC-97TM1; first compound 0.3162 µM) was 0.759, the relative viability (LCLC-97TM1; first compound 1 µM) was 0.728 and the relative viability (201T; first compound 0.01 µM) was 0.961. For the same compound, the relative viability (201T; first compound 0.03162 µM) was 1.1, the relative viability (201T; first compound 0.1 µM) was 1.03 and the relative viability (201T; first compound 0.3162 µM) was 1.02. For the same compound, the relative viability (201T; first compound 1 µM) was 0.996, the relative viability (NCI-H3122; first compound 0.01 µM) was 0.073 and the relative viability (NCI-H3122; first compound 0.03162 µM) was 0.101. The relative viability (NCI-H3122; first compound 0.1 µM) was 0.0916, the relative viability (NCI-H3122; first compound 0.3162 µM) was 0.0864 and the relative viability (NCI-H3122; first compound 1 µM) was 0.0779. It also gave a relative viability (LCLC-103H; first compound 0.01 µM) of 0.912, a relative viability (LCLC-103H; first compound 0.03162 µM) of 1.01 and a relative viability (LCLC-103H; first compound 0.1 µM) of 1.02. It also gave a relative viability (LCLC-103H; first compound 0.3162 µM) of 0.898, a relative viability (LCLC-103H; first compound 1 µM) of 0.925 and a relative viability (NCI-H322M; first compound 0.01 µM) of 0.901. It also gave a relative viability (NCI-H322M; first compound 0.03162 µM) of 0.864, a relative viability (NCI-H322M; first compound 0.1 µM) of 0.889 and a relative viability (NCI-H322M; first compound 0.3162 µM) of 0.839. The relative viability (NCI-H322M; first compound 1 µM) was 0.756.

From the supplement of paper PMC10307832
